Experimental data as given in patent US20170050957A1, “4-AMINO-6-(HETEROCYCLIC)PICOLINATES AND 6-AMINO-2-(HETEROCYCLIC)PYRIMIDINE-4-CARBOXYLATES AND THEIR USE AS HERBICIDES” (Dow AgroSciences LLC, priority 2013, published 2017).
Like-named read-outs stand apart in the source and are kept apart here.

How the values were obtained:
[1] = system: Key Broadleaf Weed and Crop Species; assay: Post-emergent Test II herbicidal activity (Table 15); assay type: in vivo; details: post-emergence, 336 h, 14 d; for pest or weed control at 35 g/ha: 35 g ai/ha; for pest or weed control at 70 g/ha: 70 g ai/ha; for pest or weed control at 140 g/ha: 140 g ai/ha
Outline: (§1)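 Post-emergence spray; seedlings 7-21 d old, 1st-2nd true leaf; 187 L/ha; serial rates 1×-1/16×; solvent blank controls; subirrigated; visual % injury at 14 d.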

[2] = system: Key Grass and Sedge Weeds as well as Grass Crops; assay: Post-emergent Test II herbicidal activity (Table 16); assay type: in vivo; details: post-emergence, 336 h, 14 d; for pest or weed control at 35 g/ha: 35 g ai/ha; for pest or weed control at 70 g/ha: 70 g ai/ha; for pest or weed control at 140 g/ha: 140 g ai/ha
Outline: as §1

[3] = Abutilon theophrasti, velvetleaf (Abutilon theophrasti), read-out: Visual Growth Reduction (%) 14 Days After Application, ABUTH
[4] = Amaranthus retroflexus, redroot pigweed (Amaranthus retroflexus), read-out: Visual Growth Reduction (%) 14 Days After Application, AMARE
[5] = Brassica napus, oilseed rape, canola (Brassica napus), read-out: Visual Growth Reduction (%) 14 Days After Application, BRSNN
[6] = Chenopodium album, lambsquarters (Chenopodium album), read-out: Visual Growth Reduction (%) 14 Days After Application, CHEAL
[7] = Euphorbia heterophylla, wild poinsettia (Euphorbia heterophylla), read-out: Visual Growth Reduction (%) 14 Days After Application, EPHHL
[8] = Helianthus annuus, sunflower (Helianthus annuus), read-out: Visual Growth Reduction (%) 14 Days After Application, HELAN
[9] = Cyperus esculentus, yellow nutsedge (Cyperus esculentus), read-out: Visual Growth Reduction (%) 14 Days After Application, CYPES
[10] = Echinochloa crus-galli, barnyardgrass (Echinochloa crus-galli), read-out: Visual Growth Reduction (%) 14 Days After Application, ECHCG
[11] = Oryza sativa, rice (Oryza sativa), read-out: Visual Growth Reduction (%) 14 Days After Application, ORYSA
[12] = Setaria faberi, giant foxtail (Setaria faberi), read-out: Visual Growth Reduction (%) 14 Days After Application, SETFA
[13] = Triticum aestivum, wheat, spring (Triticum aestivum), read-out: Visual Growth Reduction (%) 14 Days After Application, TRZAS
[14] = Zea mays, maize, corn (Zea mays), read-out: Visual Growth Reduction (%) 14 Days After Application, ZEAMX

`COC(=O)c1nc(-c2ccc3cc[nH]c3c2)nc(N)c1OC` [Compound 1.32] showed a pest or weed control at 35 g/ha [1, 3] of 0 to 29%, a pest or weed control at 70 g/ha [1, 3] of 0 to 29% and a pest or weed control at 140 g/ha [1, 3] of 0 to 29%. For the same compound, the pest or weed control at 35 g/ha [1, 4] was 0 to 29%, the pest or weed control at 70 g/ha [1, 4] was 30 to 44% and the pest or weed control at 140 g/ha [1, 4] was 60 to 74%. The pest or weed control at 35 g/ha [1, 5] was 30 to 44%, the pest or weed control at 70 g/ha [1, 5] was 45 to 59% and the pest or weed control at 140 g/ha [1, 5] was 60 to 74%. For the same compound, the pest or weed control at 35 g/ha [1, 6] was 0 to 29%, the pest or weed control at 70 g/ha [1, 6] was 0 to 29% and the pest or weed control at 140 g/ha [1, 6] was 75 to 84%. The pest or weed control at 35 g/ha [1, 7] was 0 to 29%, the pest or weed control at 70 g/ha [1, 7] was 60 to 74% and the pest or weed control at 140 g/ha [1, 7] was 85 to 94%. The pest or weed control at 35 g/ha [1, 8] was 45 to 59%, the pest or weed control at 70 g/ha [1, 8] was 60 to 74% and the pest or weed control at 140 g/ha [1, 8] was 75 to 84%. The pest or weed control at 35 g/ha [2, 9] was 0 to 29%, the pest or weed control at 70 g/ha [2, 9] was 0 to 29% and the pest or weed control at 140 g/ha [2, 9] was 0 to 29%. It also gave a pest or weed control at 35 g/ha [2, 10] of 0 to 29%, a pest or weed control at 70 g/ha [2, 10] of 0 to 29% and a pest or weed control at 140 g/ha [2, 10] of 0 to 29%. It also gave a pest or weed control at 35 g/ha [2, 11] of 0 to 29%, a pest or weed control at 70 g/ha [2, 11] of 0 to 29% and a pest or weed control at 140 g/ha [2, 11] of 0 to 29%. The pest or weed control at 35 g/ha [2, 12] was 0 to 29%, the pest or weed control at 70 g/ha [2, 12] was 0 to 29% and the pest or weed control at 140 g/ha [2, 12] was 0 to 29%. The pest or weed control at 35 g/ha [2, 13] was 0 to 29%, the pest or weed control at 70 g/ha [2, 13] was 0 to 29% and the pest or weed control at 140 g/ha [2, 13] was 0 to 29%. For the same compound, the pest or weed control at 35 g/ha [2, 14] was 0 to 29%, the pest or weed control at 70 g/ha [2, 14] was 0 to 29% and the pest or weed control at 140 g/ha [2, 14] was 0 to 29%. It also gave a melting point of 190 to 191 °C.
In the case of `COC(=O)c1nc(-c2ccc3cc[nH]c3c2F)nc(N)c1Cl` [Compound 1.31], the pest or weed control at 35 g/ha [1, 3] is reported as 45 to 59%, the pest or weed control at 70 g/ha [1, 3] is reported as 60 to 74% and the pest or weed control at 140 g/ha [1, 3] is reported as 60 to 74%. For the same compound, the pest or weed control at 35 g/ha [1, 4] was 60 to 74%, the pest or weed control at 70 g/ha [1, 4] was 95 to 100% and the pest or weed control at 140 g/ha [1, 4] was 95 to 100%. The pest or weed control at 35 g/ha [1, 5] was 85 to 94%, the pest or weed control at 70 g/ha [1, 5] was 95 to 100% and the pest or weed control at 140 g/ha [1, 5] was 95 to 100%. The pest or weed control at 35 g/ha [1, 6] was 95 to 100%, the pest or weed control at 70 g/ha [1, 6] was 95 to 100% and the pest or weed control at 140 g/ha [1, 6] was 95 to 100%. It also gave a pest or weed control at 35 g/ha [1, 7] of 95 to 100%, a pest or weed control at 70 g/ha [1, 7] of 95 to 100% and a pest or weed control at 140 g/ha [1, 7] of 95 to 100%. The pest or weed control at 35 g/ha [1, 8] was 30 to 44%, the pest or weed control at 70 g/ha [1, 8] was 45 to 59% and the pest or weed control at 140 g/ha [1, 8] was 60 to 74%. For the same compound, the pest or weed control at 35 g/ha [2, 9] was 0 to 29%, the pest or weed control at 70 g/ha [2, 9] was 0 to 29% and the pest or weed control at 140 g/ha [2, 9] was 0 to 29%. The pest or weed control at 35 g/ha [2, 10] was 75 to 84%, the pest or weed control at 70 g/ha [2, 10] was 75 to 84% and the pest or weed control at 140 g/ha [2, 10] was 85 to 94%. The pest or weed control at 35 g/ha [2, 11] was 0 to 29%, the pest or weed control at 70 g/ha [2, 11] was 0 to 29% and the pest or weed control at 140 g/ha [2, 11] was 0 to 29%. It also gave a pest or weed control at 35 g/ha [2, 12] of 60 to 74%, a pest or weed control at 70 g/ha [2, 12] of 75 to 84% and a pest or weed control at 140 g/ha [2, 12] of 85 to 94%. For the same compound, the pest or weed control at 35 g/ha [2, 13] was 75 to 84%, the pest or weed control at 70 g/ha [2, 13] was 0 to 29% and the pest or weed control at 140 g/ha [2, 13] was 30 to 44%. The pest or weed control at 35 g/ha [2, 14] was 0 to 29%, the pest or weed control at 70 g/ha [2, 14] was 0 to 29% and the pest or weed control at 140 g/ha [2, 14] was 0 to 29%. For the same compound, the melting point was 185 to 190 °C.
